Measurements published in patent US20260092061A1, “COMPOUNDS FOR TARGETED PROTEIN DEGRADATION” (Amphista Therapeutics Limited, priority 2022, published 2026).

Biological target: T1, BRD9 (Homo sapiens, UniProt Q9H8M2)
T1 sequence (Q9H8M2 1-597): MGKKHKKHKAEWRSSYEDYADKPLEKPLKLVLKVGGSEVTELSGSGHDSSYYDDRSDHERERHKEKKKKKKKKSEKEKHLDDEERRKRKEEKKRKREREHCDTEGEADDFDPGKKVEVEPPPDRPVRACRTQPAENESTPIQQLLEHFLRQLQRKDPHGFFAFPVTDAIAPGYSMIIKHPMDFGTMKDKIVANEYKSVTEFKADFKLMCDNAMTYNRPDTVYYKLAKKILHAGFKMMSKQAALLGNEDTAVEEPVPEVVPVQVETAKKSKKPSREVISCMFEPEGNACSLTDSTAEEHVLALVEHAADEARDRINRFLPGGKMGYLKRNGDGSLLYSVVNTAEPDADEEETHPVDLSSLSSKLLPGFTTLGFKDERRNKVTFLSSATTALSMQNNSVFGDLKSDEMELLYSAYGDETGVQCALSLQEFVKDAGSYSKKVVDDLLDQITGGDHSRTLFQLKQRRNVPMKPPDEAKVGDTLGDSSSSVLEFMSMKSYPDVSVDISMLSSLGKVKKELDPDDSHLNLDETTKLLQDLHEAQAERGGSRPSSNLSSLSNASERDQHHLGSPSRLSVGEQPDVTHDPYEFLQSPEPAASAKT
Experiment: Degradation of BRD9 (IF), immunofluorescence in MV4-11 cells, 24 hours (Assay Protocol 2)
Assay type: cell-based
Design: A suspension of MV4-11 cells (ATCC CRL-9591) was prepared; host or cells: MV4-11
Conditions: BRD9 degradation; for DC50: Assay protocol 2, read-out: DC50; for Dmax: MV4-11, Assay protocol 2, read-out: Dmax
In short: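 MV4-11 cells treated with compound 24 h at 37° C., then fixed, permeabilised and immunostained for BRD9 (anti-BRD9 E4Q3F, Alexa 647 secondary, Hoechst counterstain). High-content imaging quantified nuclear BRD9 signal; % BRD9 remaining normalised to DMSO and 100 nM CFT-8634 controls.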

Row | Structure (SMILES) | DC50 | Dmax
1 | COc1cc(-c2cn(C)c(=O)c(C)c2C)cc(OC)c1CN1CCN(Cc2cccc3c2CCN(C(=O)/C(C#N)=C/C(C)(C)C)C3C2CC2)C2(CC2)C1 (mixture of isomers) [Compound C16, (E/Z)-2-(1-cyclopropyl-5-((7-(2,6-dimethoxy-4-(1,4,5-trimethyl-6-oxo-1,6-dihydropyridin-3-yl)benzyl)-4,7-diazaspiro[2.5]octan-4-yl)methyl)-1,2,3,4-tetrahydroisoquinoline-2-carbonyl)-4,4-dimethylpent-2-enenitrile] | < 0.00125 µM | > 75%
2 | CCCC1c2cccc(CN3CCN(Cc4c(OC)cc(-c5cn(C)c(=O)c(C)c5C)cc4OC)CC34CC4)c2CCN1C(=O)/C(C#N)=C/C(C)(C)C (mixture of isomers) [Compound C17, (E/Z)-2-(5-((7-(2,6-dimethoxy-4-(1,4,5-trimethyl-6-oxo-1,6-dihydropyridin-3-yl)benzyl)-4,7-diazaspiro[2.5]octan-4-yl)methyl)-1-propyl-1,2,3,4-tetrahydroisoquinoline-2-carbonyl)-4,4-dimethylpent-2-enenitrile] | 0.00125 to 0.01 µM | > 75%
3 | COCC1(OC)c2cccc(CN3CCN(Cc4c(OC)cc(-c5cn(C)c(=O)c(C)c5C)cc4OC)CC34CC4)c2CCN1C(=O)/C(C#N)=C/C(C)(C)C (mixture of isomers) [Compound C18, (E/Z)-2-(5-((7-(2,6-dimethoxy-4-(1,4,5-trimethyl-6-oxo-1,6-dihydropyridin-3-yl)benzyl)-4,7-diazaspiro[2.5]octan-4-yl)methyl)-1-methoxy-1-(methoxymethyl)-1,2,3,4-tetrahydroisoquinoline-2-carbonyl)-4,4-dimethylpent-2-enenitrile] | 0.00125 to 0.01 µM | > 75%
4 | COc1cc(-c2cn(C)c(=O)c(C)c2C)cc(OC)c1CN1CCN(Cc2cccc3c2CCN(C(=O)/C(C#N)=C/c2cccc(Br)n2)C3C(C)C)CC1 (mixture of isomers) [Compound C21, (E/Z)-3-(6-bromopyridin-2-yl)-2-(5-((4-(2,6-dimethoxy-4-(1,4,5-trimethyl-6-oxo-1,6-dihydropyridin-3-yl)benzyl)piperazin-1-yl)methyl)-1-isopropyl-1,2,3,4-tetrahydroisoquinoline-2-carbonyl)acrylonitrile] | 0.00125 to 0.01 µM | 70 to 75%
5 | COc1cc(-c2cn(C)c(=O)c(C)c2C)cc(OC)c1CN1CCN(Cc2cccc3c2CCN(C(=O)/C(C#N)=C/C(C)C)C3C(C)C)CC1 (mixture of isomers) [Compound C22, (E/Z)-2-(5-((4-(2,6-dimethoxy-4-(1,4,5-trimethyl-6-oxo-1,6-dihydropyridin-3-yl)benzyl)piperazin-1-yl)methyl)-1-isopropyl-1,2,3,4-tetrahydroisoquinoline-2-carbonyl)-4-methylpent-2-enenitrile] | 0.00125 to 0.01 µM | > 75%
6 | COc1cc(-c2cn(C)c(=O)c(C)c2C)cc(OC)c1CN1CCN(Cc2cccc3c2CCN(C(=O)/C(C#N)=C/C2(C)CCOCC2)C3C(C)C)C2(CC2)C1 (mixture of isomers) [Compound C23, (E/Z)-2-(5-((7-(2,6-dimethoxy-4-(1,4,5-trimethyl-6-oxo-1,6-dihydropyridin-3-yl)benzyl)-4,7-diazaspiro[2.5]octan-4-yl)methyl)-1-isopropyl-1,2,3,4-tetrahydroisoquinoline-2-carbonyl)-3-(4-methyltetrahydro-2H-pyran-4-yl)acrylonitrile] | < 0.00125 µM | > 75%
7 | COc1cc(-c2cn(C)c(=O)c(C)c2C)cc(OC)c1CN1CCN(Cc2cccc3c2CCN(C(=O)/C(C#N)=C/C(C)(C)CF)C3C(C)C)C2(CC2)C1 (mixture of isomers) [Compound C24, (E/Z)-2-(5-((7-(2,6-dimethoxy-4-(1,4,5-trimethyl-6-oxo-1,6-dihydropyridin-3-yl)benzyl)-4,7-diazaspiro[2.5]octan-4-yl)methyl)-1-isopropyl-1,2,3,4-tetrahydroisoquinoline-2-carbonyl)-5-fluoro-4,4-dimethylpent-2-enenitrile] | < 0.00125 µM | > 75%
8 | COc1cc(-c2cn(C)c(=O)c(C)c2C)cc(OC)c1CN1CCN(Cc2cccc3c2CCN(C(=O)/C(C#N)=C/C(C)(C)CF)C3C(C)C)CC12CC2 (mixture of isomers) [Compound C25, (E/Z)-2-(5-((4-(2,6-dimethoxy-4-(1,4,5-trimethyl-6-oxo-1,6-dihydropyridin-3-yl)benzyl)-4,7-diazaspiro[2.5]octan-7-yl)methyl)-1-isopropyl-1,2,3,4-tetrahydroisoquinoline-2-carbonyl)-5-fluoro-4,4-dimethylpent-2-enenitrile] | 0.00125 to 0.01 µM | > 75%
9 | COc1cc(-c2cn(C)c(=O)c(C)c2C)cc(OC)c1CN1CCN(Cc2cccc3c2CCN(C(=O)/C(C#N)=C/c2cccc(Br)n2)C3C)C2(CC2)C1 (mixture of isomers) [Compound C29] | 0.00125 to 0.01 µM | 70 to 75%
10 | COc1cc(-c2cn(C)c(=O)c(C)c2C)cc(OC)c1CN1CCN(Cc2cccc3c2CCN(C(=O)/C(C#N)=C/C(C)(C)F)[C@H]3C)C2(CC2)C1 (mixture of isomers) [Compound C30] | 0.025 to 1 µM | 40 to 70%
11 | COc1cc(-c2cn(C)c(=O)c(C)c2C)ccc1OC1CCN(Cc2cccc3c2CCN(C(=O)/C(C#N)=C/C(C)(C)C)C3C(C)C)CC1 (mixture of isomers) [Compound C32, (E/Z)-2-(1-isopropyl-5-((4-(2-methoxy-4-(1,4,5-trimethyl-6-oxo-1,6-dihydropyridin-3-yl)phenoxy)piperidin-1-yl)methyl)-1,2,3,4-tetrahydroisoquinoline-2-carbonyl)-4,4-dimethylpent-2-enenitrile] | 0.025 to 1 µM | 70 to 75%
12 | COc1cc(-c2cn(C)c(=O)c(C)c2C)cc(OC)c1CN1CCN(C(=O)c2cccc3c2CCN(C(=O)/C(C#N)=C/C(C)(C)C)C3C)C2(CC2)C1 (mixture of isomers) [Compound C43, (E/Z)-2-(5-(7-(2,6-dimethoxy-4-(1,4,5-trimethyl-6-oxo-1,6-dihydropyridin-3-yl)benzyl)-4,7-diazaspiro[2.5]octane-4-carbonyl)-1-methyl-1,2,3,4-tetrahydroisoquinoline-2-carbonyl)-4,4-dimethylpent-2-enenitrile] | 0.025 to 1 µM | > 75%
13 | COc1cc(-c2cn(C)c(=O)c(C)c2C)cc(OC)c1CN1CCC2(CC1)CN(c1cccc3c1CCN(C(=O)/C(C#N)=C/C(C)(C)C)[C@@H]3C)C2 (mixture of isomers) [Compound C45, (E/Z)-2-(5-(7-(2,6-dimethoxy-4-(1,4,5-trimethyl-6-oxo-1,6-dihydropyridin-3-yl)benzyl)-2,7-diazaspiro[3.5]nonan-2-yl)-1-methyl-1,2,3,4-tetrahydroisoquinoline-2-carbonyl)-4,4-dimethylpent-2-enenitrile] | 0.01 to 0.025 µM | 40 to 70%
14 | COc1cc(-c2cn(C)c(=O)c(C)c2C)cc(OC)c1CN1CCC2(CC1)CCN(c1cccc3c1CCN(C(=O)/C(C#N)=C/C(C)(C)CF)[C@@H]3C)C2 (mixture of isomers) [Compound C48, (E/Z)-2-(5-(8-(2,6-dimethoxy-4-(1,4,5-trimethyl-4-oxo-1,6-dihydropyridin-3-yl)benzyl)-2,8-diazaspiro[4.5]decan-2-yl)-1-methyl-1,2,3,4-tetrahydroisoquinoline-2-carbonyl)-5-fluoro-4,4-dimethylpent-2-enenitrile] | 0.00125 to 0.01 µM | > 75%
